According to paper PMC7613998, “Development of selective inhibitors of phosphatidylinositol 3-kinase C2α” (Nature Chemical Biology, 2022):

Key:
Experiment in all cases: biochemical
Design in all cases: SelectScreen Z'-LYTE purified kinase panel, per cent inhibition, mean of two points
Conditions in all cases: (μM)=Km app
ABL1 = ABL1 (Homo sapiens, UniProt P00519)
ALK = ALK (Homo sapiens, UniProt Q9UM73)
ERBB4 (HER4) = ERBB4 (HER4) (Homo sapiens, UniProt Q15303)
FLT3 = target: T1, FLT3 (Homo sapiens, UniProt P36888)
T1 sequence (P36888 1-993): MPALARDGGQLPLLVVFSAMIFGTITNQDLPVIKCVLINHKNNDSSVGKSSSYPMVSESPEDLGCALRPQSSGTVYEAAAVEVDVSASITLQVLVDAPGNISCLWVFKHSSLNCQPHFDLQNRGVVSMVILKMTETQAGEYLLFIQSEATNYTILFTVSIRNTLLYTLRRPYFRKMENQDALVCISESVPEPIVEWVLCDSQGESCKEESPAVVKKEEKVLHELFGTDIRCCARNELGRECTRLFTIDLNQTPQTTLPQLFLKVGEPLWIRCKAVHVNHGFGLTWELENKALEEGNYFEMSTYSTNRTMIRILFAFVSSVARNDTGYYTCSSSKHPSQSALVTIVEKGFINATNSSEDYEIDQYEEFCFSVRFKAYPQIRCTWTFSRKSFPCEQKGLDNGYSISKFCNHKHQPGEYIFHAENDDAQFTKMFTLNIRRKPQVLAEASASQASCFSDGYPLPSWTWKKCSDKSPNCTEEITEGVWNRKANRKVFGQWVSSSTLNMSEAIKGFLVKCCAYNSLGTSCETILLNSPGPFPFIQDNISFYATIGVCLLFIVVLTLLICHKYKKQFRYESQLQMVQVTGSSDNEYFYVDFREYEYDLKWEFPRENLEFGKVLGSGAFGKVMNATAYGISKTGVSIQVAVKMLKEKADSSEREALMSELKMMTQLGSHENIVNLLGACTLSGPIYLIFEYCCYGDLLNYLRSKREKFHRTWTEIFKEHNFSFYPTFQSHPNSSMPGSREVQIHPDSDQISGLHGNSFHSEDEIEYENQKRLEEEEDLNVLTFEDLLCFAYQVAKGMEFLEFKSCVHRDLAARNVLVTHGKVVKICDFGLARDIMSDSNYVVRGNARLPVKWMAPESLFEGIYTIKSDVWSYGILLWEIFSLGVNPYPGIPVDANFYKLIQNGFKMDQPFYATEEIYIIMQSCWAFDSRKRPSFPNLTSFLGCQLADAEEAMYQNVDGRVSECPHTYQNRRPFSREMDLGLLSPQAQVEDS

JAK2 = JAK2 (Homo sapiens, UniProt O60674)
Sequence of JAK2 (O60674 whole entry): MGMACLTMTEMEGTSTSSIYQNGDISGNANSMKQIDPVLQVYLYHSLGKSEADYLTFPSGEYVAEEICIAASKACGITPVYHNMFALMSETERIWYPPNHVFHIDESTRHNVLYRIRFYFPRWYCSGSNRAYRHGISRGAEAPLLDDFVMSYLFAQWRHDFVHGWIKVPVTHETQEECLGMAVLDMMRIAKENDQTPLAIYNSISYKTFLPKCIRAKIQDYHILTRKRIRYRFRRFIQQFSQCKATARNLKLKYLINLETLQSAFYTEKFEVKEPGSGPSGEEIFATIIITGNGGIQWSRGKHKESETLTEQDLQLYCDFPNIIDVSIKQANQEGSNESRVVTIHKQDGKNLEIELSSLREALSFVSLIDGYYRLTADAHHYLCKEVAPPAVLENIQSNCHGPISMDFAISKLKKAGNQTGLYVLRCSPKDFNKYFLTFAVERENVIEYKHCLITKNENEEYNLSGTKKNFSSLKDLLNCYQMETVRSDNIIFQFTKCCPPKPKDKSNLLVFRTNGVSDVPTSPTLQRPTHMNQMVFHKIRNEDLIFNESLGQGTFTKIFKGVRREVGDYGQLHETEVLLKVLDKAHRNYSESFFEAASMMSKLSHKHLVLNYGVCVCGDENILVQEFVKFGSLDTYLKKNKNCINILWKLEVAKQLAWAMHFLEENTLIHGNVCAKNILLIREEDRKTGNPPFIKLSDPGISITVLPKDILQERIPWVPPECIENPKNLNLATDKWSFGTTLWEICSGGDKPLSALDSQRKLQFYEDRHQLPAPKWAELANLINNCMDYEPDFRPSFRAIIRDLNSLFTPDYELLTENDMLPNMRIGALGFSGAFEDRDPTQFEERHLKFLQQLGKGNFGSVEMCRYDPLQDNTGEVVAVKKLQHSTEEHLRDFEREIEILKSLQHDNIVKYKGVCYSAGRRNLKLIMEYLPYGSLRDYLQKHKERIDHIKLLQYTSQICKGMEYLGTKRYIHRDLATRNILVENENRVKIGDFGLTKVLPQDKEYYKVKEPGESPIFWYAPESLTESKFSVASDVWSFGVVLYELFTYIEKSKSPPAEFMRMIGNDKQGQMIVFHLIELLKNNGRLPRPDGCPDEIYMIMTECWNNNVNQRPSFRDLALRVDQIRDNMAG

JAK3 = target: T2, JAK3 (Homo sapiens, UniProt P52333)
T2 sequence (P52333 1-1124): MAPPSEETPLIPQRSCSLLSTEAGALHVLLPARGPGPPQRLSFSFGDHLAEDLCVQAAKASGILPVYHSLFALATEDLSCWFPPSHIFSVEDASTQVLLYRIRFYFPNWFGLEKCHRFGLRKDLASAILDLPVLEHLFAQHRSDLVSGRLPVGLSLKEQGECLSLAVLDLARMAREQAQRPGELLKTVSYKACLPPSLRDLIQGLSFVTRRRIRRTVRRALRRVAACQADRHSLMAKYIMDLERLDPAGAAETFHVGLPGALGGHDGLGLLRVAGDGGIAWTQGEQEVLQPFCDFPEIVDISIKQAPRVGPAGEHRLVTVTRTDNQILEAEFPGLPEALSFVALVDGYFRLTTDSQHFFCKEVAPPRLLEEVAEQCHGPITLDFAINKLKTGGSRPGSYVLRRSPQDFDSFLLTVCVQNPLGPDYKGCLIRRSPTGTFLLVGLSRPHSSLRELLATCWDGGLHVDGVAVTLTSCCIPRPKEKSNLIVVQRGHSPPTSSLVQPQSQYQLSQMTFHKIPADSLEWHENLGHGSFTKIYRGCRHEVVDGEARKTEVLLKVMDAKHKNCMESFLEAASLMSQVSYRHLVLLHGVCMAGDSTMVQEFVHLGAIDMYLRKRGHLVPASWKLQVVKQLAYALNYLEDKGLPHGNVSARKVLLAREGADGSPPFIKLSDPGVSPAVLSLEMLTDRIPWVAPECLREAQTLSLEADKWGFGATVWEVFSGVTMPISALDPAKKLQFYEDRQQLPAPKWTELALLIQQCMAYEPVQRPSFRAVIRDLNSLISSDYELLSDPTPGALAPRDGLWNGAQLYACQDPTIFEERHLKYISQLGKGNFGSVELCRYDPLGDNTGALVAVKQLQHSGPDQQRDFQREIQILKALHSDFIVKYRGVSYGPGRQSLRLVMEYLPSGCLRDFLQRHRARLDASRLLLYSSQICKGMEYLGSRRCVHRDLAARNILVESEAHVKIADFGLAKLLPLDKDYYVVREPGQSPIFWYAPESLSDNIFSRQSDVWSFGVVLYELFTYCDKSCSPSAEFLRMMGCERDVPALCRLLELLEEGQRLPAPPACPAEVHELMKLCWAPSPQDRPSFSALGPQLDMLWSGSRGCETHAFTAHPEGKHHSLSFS

LYN A = target: T3, LYN A (Homo sapiens, UniProt P07948)
T3 construct: isoform A
T3 sequence (P07948 whole entry, canonical isoform): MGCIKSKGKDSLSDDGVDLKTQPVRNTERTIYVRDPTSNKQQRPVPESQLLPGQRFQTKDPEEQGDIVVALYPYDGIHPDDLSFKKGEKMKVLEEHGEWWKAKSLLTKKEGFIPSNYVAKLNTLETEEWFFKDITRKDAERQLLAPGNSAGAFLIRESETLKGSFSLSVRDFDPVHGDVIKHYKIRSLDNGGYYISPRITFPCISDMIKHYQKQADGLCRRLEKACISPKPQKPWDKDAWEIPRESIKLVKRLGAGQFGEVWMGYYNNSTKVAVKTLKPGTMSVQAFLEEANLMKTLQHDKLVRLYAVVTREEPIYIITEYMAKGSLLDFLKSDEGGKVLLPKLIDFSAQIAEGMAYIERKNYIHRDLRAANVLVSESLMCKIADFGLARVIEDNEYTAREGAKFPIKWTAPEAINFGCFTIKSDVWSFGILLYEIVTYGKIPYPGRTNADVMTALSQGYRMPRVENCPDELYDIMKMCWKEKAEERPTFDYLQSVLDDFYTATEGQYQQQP

PIM3 = PIM3 (Homo sapiens, UniProt Q86V86)

Sequence of ALK (Q9UM73 whole entry): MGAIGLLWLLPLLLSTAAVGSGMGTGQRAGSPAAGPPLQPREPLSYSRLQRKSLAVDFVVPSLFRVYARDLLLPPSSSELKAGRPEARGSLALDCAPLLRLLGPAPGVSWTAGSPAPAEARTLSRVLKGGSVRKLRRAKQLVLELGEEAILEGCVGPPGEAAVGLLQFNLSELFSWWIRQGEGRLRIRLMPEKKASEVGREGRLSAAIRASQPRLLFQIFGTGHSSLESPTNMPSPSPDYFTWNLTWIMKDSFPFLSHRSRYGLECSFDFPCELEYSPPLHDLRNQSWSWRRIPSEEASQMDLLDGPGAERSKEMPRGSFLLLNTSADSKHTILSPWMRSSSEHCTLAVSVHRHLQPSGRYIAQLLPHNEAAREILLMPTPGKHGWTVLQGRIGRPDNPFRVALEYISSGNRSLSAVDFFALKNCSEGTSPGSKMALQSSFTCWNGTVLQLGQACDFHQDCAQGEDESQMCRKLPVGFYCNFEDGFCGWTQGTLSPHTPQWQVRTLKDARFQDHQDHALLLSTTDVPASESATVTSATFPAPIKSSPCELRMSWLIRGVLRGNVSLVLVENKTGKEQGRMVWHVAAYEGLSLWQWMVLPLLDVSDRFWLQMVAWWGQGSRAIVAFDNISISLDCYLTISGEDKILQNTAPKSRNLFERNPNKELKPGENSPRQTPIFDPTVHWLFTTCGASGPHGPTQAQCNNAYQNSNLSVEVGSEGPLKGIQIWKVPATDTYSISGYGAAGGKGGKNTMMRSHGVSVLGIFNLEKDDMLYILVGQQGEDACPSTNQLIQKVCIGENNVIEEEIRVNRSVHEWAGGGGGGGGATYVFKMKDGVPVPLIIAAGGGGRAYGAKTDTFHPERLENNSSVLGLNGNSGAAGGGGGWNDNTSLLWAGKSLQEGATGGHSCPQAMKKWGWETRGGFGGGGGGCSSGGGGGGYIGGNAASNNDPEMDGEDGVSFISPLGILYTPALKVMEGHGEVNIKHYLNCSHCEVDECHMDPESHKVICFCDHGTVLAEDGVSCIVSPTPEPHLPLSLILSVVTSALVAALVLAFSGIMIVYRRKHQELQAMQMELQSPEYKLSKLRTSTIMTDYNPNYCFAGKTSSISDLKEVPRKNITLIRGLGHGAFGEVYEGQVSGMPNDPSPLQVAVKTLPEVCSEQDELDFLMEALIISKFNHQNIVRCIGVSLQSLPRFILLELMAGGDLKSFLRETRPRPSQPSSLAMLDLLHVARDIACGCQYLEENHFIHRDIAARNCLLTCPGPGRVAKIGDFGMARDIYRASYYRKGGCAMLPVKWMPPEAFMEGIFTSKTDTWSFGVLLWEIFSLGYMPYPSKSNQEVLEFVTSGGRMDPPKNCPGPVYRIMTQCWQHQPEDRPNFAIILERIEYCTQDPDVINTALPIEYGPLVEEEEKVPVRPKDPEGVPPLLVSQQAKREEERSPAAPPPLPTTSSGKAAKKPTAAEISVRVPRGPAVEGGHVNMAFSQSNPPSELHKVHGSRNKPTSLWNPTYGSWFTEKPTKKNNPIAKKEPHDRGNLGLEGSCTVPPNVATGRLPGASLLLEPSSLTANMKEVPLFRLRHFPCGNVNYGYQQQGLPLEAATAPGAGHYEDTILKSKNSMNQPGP
Sequence of ABL1 (P00519 whole entry): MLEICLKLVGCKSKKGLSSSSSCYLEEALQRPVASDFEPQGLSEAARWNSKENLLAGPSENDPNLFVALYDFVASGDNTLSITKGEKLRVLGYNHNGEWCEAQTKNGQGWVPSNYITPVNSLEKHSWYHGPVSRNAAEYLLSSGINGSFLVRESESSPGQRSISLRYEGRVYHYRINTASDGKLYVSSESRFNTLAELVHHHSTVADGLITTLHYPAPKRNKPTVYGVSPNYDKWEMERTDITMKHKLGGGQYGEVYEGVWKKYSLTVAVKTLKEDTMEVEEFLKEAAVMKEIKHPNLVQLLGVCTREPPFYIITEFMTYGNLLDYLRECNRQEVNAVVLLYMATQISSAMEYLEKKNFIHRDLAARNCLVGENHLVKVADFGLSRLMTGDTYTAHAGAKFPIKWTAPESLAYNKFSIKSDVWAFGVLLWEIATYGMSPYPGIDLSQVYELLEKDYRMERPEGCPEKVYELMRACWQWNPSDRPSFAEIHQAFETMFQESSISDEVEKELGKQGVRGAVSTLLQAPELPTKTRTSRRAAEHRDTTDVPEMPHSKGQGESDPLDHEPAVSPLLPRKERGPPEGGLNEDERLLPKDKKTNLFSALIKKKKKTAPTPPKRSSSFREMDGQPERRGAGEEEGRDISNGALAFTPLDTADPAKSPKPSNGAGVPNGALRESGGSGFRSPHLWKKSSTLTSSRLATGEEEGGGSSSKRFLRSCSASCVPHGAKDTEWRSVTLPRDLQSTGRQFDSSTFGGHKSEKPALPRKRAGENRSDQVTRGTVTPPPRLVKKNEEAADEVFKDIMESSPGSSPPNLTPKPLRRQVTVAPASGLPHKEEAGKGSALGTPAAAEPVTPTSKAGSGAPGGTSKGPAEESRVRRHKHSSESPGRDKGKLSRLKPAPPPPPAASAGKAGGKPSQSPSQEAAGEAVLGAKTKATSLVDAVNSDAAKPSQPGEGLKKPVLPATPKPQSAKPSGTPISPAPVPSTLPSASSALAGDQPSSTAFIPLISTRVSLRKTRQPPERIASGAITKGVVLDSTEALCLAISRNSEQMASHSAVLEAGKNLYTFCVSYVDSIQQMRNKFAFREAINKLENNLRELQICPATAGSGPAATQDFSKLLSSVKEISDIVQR

inhibition at 1 µM (ABL1) [%] | inhibition at 3 µM (ABL1) [%] | inhibition at 10 µM (ABL1) [%] | inhibition at 1 µM (ALK) [%] | inhibition at 3 µM (ALK) [%] | inhibition at 10 µM (ALK) [%] | inhibition at 1 µM (ERBB4 (HER4)) [%] | inhibition at 3 µM (ERBB4 (HER4)) [%] | inhibition at 10 µM (ERBB4 (HER4)) [%] | inhibition at 1 µM (FLT3) [%] | inhibition at 3 µM (FLT3) [%] | inhibition at 10 µM (FLT3) [%] | inhibition at 1 µM (JAK2) [%] | inhibition at 3 µM (JAK2) [%] | inhibition at 10 µM (JAK2) [%] | inhibition at 1 µM (JAK3) [%] | inhibition at 3 µM (JAK3) [%] | inhibition at 10 µM (JAK3) [%] | inhibition at 1 µM (LYN A) [%] | inhibition at 3 µM (LYN A) [%] | Compound | other results
2.07 | 2.45 | 1.9 | 8.08 | 8.57 | 8.82 | -3.45 | -1.62 | 0.146 | 9.16 | 8.82 | 8.33 | 0.852 | -8.02 | -7.27 | -0.818 | -2.14 | 0.865 | 2.62 | 1.7 | O=C(CSc1nc2nccnc2c(=O)n1CCc1ccccc1)Nc1nccs1 [compound 1, PITCOIN1] | inhibition at 10 µM (LYN A): 2.95%; inhibition at 1 µM (PIM3): -19.5%; inhibition at 3 µM (PIM3): 0.932%; inhibition at 10 µM (PIM3): 0.817%
1.91 | 4.06 | 4 | 17.2 | 10.4 | 10.9 | -2.57 | -5.3 | -3.59 | 12.3 | 11 | 12.7 | -4.04 | -2.51 | -3.7 | 1.86 | -1.56 | -1.58 | 1.87 | 2.86 | CS(=O)(=O)Nc1cccc(-c2csc(NC(=O)CSc3nc4nccnc4c(=O)n3CCc3ccccc3)n2)c1 [compound 3, PITCOIN3] | inhibition at 10 µM (LYN A): 1.59%; inhibition at 1 µM (PIM3): -2.65%; inhibition at 3 µM (PIM3): -27.1%; inhibition at 10 µM (PIM3): -12.5%
